Laboratory results as given in patent publication US20120172340A1, “Compositions and Methods for Selectively Activating Human Sirtuins” (BIOMOL International L.P., priority 2004, published 2012).
Changes are numbered by the printed parent chain.

Tests used:
human SIRT5 = molecular target: T1, human SIRT5 (Homo sapiens, UniProt Q9NXA8); conditions: 500 μM resveratrol; saturating NAD+ (12 mM)
T1 sequence (Q9NXA8 37-310): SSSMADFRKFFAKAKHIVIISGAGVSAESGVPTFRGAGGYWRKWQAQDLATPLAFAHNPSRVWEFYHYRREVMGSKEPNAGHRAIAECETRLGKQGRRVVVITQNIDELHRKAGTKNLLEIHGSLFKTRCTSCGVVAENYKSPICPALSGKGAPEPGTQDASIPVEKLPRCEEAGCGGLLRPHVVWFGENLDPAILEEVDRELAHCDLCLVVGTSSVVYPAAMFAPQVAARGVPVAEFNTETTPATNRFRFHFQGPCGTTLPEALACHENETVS

human SIRT1 = molecular target: T2, human SIRT1 (Homo sapiens, UniProt Q96EB6); assay: SIRT1 rate measurement, fluorogenic p53-382 peptide deacetylation; assay type: biochemical
T2 construct: made in house; host or cells: E. coli
T2 sequence (Q96EB6 1-747): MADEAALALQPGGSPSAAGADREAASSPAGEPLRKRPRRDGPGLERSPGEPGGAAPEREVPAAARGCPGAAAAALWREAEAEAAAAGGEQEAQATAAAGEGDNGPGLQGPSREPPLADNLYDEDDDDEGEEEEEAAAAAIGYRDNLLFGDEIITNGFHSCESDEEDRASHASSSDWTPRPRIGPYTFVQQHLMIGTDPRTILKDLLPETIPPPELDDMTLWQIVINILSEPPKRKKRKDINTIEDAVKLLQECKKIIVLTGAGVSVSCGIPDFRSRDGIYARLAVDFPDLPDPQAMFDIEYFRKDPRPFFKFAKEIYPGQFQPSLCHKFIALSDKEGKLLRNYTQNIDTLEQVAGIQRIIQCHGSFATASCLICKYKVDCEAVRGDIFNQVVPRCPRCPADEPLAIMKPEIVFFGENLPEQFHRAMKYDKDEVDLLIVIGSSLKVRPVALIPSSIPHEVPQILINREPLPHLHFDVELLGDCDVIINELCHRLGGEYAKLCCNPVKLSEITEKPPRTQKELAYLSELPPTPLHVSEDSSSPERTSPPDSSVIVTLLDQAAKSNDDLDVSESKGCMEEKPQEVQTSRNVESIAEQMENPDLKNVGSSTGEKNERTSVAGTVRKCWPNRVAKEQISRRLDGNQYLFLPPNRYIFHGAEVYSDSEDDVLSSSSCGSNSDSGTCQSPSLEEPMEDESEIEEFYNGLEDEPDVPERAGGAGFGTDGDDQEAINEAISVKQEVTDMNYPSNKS

dSir2 = molecular target: T3, dSir2 (Drosophila melanogaster, UniProt Q9VK34, DEL53-54/DUP289-290/L518H/P746H/V753F); assay: Resveratrol dose-response, fluorogenic deacetylation, dSir2; assay type: biochemical, D. melanogaster; conditions: 25° C., 50 μM NAD+, 50 μM Fluor de Lys acetylated lysine substrate; FIG. 1
T3 construct: made in house; host or cells: E. coli
T3 sequence (Q9VK34 other isoform, or with tags, fused parts or gaps DEL53-54/DUP289-290/L518H/P746H/V753F): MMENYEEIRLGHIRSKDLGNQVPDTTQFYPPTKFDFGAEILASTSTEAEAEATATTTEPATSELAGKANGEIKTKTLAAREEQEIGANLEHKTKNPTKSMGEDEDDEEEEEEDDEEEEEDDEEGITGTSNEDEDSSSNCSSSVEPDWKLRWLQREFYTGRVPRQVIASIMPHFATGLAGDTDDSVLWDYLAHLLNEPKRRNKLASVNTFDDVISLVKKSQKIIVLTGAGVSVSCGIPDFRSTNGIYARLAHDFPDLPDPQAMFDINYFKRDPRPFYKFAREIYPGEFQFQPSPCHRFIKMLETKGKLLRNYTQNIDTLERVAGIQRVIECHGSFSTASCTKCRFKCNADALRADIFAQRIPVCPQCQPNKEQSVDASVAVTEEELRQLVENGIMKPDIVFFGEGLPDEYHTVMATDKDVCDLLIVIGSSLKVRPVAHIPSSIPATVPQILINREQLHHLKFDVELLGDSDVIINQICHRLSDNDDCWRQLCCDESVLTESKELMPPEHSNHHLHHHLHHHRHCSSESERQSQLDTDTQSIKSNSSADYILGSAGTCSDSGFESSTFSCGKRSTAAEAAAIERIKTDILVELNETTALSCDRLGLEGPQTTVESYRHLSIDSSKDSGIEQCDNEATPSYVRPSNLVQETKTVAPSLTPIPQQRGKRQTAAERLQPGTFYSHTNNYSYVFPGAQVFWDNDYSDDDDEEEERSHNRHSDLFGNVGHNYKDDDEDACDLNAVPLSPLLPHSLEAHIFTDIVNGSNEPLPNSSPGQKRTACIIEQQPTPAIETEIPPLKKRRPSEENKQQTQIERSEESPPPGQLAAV

human SIRT3 = molecular target: T4, human SIRT3 (Homo sapiens, UniProt Q9NTG7); assay: Resveratrol dose-response, fluorogenic deacetylation, SIRT3; assay type: biochemical; conditions: 37° C., 25 μM NAD+, 25 μM p53-320; FIG. 1
T4 construct: made in house; host or cells: E. coli
T4 sequence (Q9NTG7 1-399): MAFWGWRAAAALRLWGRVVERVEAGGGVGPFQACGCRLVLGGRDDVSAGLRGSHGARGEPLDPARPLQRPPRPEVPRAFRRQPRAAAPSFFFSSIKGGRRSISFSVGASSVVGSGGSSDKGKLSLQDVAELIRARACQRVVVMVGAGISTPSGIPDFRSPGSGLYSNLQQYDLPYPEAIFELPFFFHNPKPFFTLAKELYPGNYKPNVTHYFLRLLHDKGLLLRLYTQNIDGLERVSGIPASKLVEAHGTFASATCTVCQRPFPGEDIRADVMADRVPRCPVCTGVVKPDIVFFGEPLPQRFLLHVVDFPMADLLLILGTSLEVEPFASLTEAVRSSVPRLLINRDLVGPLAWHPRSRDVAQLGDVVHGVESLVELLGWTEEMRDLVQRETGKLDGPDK

SIRT5Δ1-39 = molecular target: T5, SIRT5Δ1-39 (Homo sapiens, UniProt Q9NXA8); assay: Deacetylation activity of N-terminally truncated SIRT5; assay type: biochemical; conditions: 500 μM resveratrol; 1 mM p53-382 peptide, 12 mM NAD+; compared with full-length SIRT5
T5 construct: in which the first 39 residues were deleted (SIRT5Δ1-39); made in house
T5 sequence (Q9NXA8 40-310): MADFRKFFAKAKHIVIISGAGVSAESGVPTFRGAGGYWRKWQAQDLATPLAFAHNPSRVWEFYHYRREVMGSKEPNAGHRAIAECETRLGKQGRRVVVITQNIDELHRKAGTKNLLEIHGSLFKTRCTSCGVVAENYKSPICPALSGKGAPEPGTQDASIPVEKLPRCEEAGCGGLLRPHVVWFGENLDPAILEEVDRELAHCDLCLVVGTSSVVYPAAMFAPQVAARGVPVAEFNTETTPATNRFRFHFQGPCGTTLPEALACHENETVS

ySir2 = molecular target: T6, ySir2 (Saccharomyces cerevisiae, UniProt P06700); assay: Resveratrol dose-response, fluorogenic deacetylation, ySir2; assay type: biochemical, S. cerevisiae (budding yeast); conditions: 30° C., 200 μM NAD+, 200 μM p53-382; FIG. 1
T6 construct: made in house; host or cells: E. coli
T6 sequence (P06700 whole entry): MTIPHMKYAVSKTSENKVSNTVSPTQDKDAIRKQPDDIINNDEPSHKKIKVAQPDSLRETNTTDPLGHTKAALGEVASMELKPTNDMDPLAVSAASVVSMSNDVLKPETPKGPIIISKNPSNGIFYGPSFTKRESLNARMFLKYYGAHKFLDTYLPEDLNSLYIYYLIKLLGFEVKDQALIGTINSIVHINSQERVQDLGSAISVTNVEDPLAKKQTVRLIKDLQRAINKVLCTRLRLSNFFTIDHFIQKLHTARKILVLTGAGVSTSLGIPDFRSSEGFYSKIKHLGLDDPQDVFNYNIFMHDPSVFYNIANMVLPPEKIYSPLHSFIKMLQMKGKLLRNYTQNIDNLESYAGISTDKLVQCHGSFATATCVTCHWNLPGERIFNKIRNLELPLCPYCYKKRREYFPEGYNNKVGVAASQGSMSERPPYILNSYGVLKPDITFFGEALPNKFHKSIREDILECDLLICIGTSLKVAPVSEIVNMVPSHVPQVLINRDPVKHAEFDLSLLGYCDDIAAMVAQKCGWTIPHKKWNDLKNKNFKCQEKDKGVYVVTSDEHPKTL

E230K mutant SIRT1 = molecular target: T7, E230K mutant SIRT1 (Homo sapiens, UniProt Q96EB6, E230K); assay: Resveratrol dose-response, fluorogenic deacetylation, E230K mutant SIRT1; assay type: biochemical; conditions: 37° C., 25 μM NAD+, 25 μM p53-382; FIG. 1A
T7 construct: made in house; host or cells: E. coli
T7 sequence (Q96EB6 1-747 E230K): T2 sequence (Q96EB6 1-747) with E230K

SMILES: Oc1ccc(/C=C/c2cc(O)cc(O)c2)cc1 [Resveratrol, 3,5,4′-Trihydroxy-trans-stilbene]
- lowering of the Km for the p53-382 peptide (human SIRT5): more than ten-fold
- resveratrol-dependent rate increase, human SIRT1 (human SIRT1; 37° C., 25 μM NAD+, 25 μM p53-382, FIG. 1): rate increases are seen
- resveratrol concentration at which maximum rate stimulation occurred, SIRT1 (human SIRT1; FIG. 1A): > 100 µM
- resveratrol-dependent rate increase, dSir2 (dSir2): rate increases are seen
- resveratrol-dependent rate increase, human SIRT3 (human SIRT3): not
- stimulation of SIRT5Δ1-39 deacetylation activity (SIRT5Δ1-39): similarly stimulated
- resveratrol-dependent rate increase, ySir2 (ySir2): rate increases are seen
- resveratrol activation of E230K mutant SIRT1 (E230K mutant SIRT1): diminished resveratrol activation
